As a reminder, the IC50 is the concentration that gives 50% inhibition.

The target in one assay is T1, human Nav1.7 (Homo sapiens (Human), UniProt Q15858). Kind of assay: FLIPR membrane potential dye assay (alternative fluorescence assay). The assay is classed as cell-based.
T1 sequence (Q15858 other isoform, or with tags, fused parts or gaps): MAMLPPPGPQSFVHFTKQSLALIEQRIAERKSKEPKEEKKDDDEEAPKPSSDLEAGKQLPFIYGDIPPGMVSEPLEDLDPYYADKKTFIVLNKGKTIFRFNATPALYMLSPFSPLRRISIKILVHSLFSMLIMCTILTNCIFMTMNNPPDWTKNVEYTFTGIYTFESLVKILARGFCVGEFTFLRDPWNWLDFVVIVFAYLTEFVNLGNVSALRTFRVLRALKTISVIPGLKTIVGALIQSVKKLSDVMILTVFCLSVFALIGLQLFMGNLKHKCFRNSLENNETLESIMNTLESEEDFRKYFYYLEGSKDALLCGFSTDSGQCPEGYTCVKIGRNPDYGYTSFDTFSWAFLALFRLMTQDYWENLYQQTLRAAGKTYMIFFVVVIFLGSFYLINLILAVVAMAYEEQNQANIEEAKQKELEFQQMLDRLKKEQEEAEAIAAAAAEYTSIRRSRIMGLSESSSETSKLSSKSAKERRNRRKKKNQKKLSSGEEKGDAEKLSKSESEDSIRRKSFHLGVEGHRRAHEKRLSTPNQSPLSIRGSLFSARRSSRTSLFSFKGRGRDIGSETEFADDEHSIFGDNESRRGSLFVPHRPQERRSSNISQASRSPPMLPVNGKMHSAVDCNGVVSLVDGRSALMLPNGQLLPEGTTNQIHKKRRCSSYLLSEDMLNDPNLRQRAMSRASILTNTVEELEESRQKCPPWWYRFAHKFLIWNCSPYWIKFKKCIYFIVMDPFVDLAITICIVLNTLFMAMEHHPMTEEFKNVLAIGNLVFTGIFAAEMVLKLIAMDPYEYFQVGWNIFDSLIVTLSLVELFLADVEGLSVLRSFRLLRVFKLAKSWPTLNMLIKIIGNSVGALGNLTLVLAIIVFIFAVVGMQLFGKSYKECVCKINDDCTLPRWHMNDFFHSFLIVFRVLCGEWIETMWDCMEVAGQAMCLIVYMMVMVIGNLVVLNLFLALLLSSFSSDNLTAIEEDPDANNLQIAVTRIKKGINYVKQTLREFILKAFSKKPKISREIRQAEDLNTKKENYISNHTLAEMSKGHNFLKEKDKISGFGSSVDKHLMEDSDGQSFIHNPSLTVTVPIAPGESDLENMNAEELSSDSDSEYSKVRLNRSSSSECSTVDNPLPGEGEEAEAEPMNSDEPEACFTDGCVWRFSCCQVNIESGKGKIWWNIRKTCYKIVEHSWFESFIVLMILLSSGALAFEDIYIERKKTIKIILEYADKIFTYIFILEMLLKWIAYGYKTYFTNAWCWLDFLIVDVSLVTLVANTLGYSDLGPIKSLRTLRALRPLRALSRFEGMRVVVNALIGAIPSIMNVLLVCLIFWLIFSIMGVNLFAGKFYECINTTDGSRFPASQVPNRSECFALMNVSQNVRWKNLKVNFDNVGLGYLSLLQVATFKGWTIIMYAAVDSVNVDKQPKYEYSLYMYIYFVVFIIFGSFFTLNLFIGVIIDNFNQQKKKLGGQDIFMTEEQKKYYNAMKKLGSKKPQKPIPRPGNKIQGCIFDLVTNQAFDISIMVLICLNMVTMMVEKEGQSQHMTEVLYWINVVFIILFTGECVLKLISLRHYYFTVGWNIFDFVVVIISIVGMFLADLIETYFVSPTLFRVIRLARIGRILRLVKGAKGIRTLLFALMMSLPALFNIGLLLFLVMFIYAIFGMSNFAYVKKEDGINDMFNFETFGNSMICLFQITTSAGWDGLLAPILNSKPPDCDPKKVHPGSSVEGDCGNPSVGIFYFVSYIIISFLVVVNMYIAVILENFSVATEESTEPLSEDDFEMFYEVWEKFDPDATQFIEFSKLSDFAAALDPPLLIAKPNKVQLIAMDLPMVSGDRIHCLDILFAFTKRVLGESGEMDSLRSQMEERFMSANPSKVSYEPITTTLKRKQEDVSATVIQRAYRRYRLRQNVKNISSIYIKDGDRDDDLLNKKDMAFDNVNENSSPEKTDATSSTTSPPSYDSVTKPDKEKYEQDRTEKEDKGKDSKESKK
Conditions: not given
As for `O=C1NC(=O)C2(CCN(c3ccc(Oc4ccc(F)cc4)cc3)CC2)N1` [Compound 12, 8-(4-(4-Fluorophenoxy)phenyl)-1,3,8-triazaspiro[4.5]decane-2,4-dione], the concentration for half-maximal inhibition (IC50) was over 20000 nM.
With `O=C1NC(=O)C2(CCN(c3ccc(Oc4cccc(F)c4)cc3)CC2)N1` [Compound 13, 8-(4-(3-Fluorophenoxy)phenyl)-1,3,8-triazaspiro[4.5]decane-2,4-dione], the IC50 stood at 1540 ± 223 nM.
Still for that read-out and setting: the result for `O=C1NC(=O)C2(CCN(c3ccc(Oc4cccc(C(F)(F)F)c4)cc3)CC2)N1` [Compound 14, 8-(4-(3-(Trifluoromethyl)phenoxy)phenyl)-1,3,8-triazaspiro[4.5]decane-2,4-dione] reads 1270 ± 380 nM; that for `O=C1NC(=O)C2(CCN(c3cc(-c4ccc(OC(F)(F)F)cc4)ccn3)CC2)N1` [Compound 15, 8-(4-(4-(trifluoromethoxy)phenyl)pyridin-2-yl)-1,3,8-triazaspiro[4.5]decane-2,4-dione], 872 ± 117 nM.
The same measure, in the same setting: then `O=C1NC(=O)C2(CCN(c3ccc(Oc4ccc(F)cc4)cn3)CC2)N1` [Compound 16, 8-(5-(4-Fluorophenoxy)pyridin-2-yl)-1,3,8-triazaspiro[4.5]decane-2,4-dione], with 4480 ± 1040 nM.
Same read-out and setting: the result for `O=C1NC(=O)C2(CCN(c3ccc(Oc4ccc(C(F)(F)F)cc4)cn3)CC2)N1` [Compound 17, 8-(5-(4-(trifluoromethyl)phenoxy)pyridin-2-yl)-1,3,8-triazaspiro[4.5]decane-2,4-dione] reads 1730 ± 649 nM.
In the case of `O=C1NC(=O)C2(CCN(c3ccc(Oc4cccc(C(F)(F)F)c4)cn3)CC2)N1` [Compound 18, 8-(5-(3-(trifluoromethyl)phenoxy)-pyridin-2-yl)-1,3,8-triazaspiro[4.5]decane-2,4-dione], it took 1440 ± 492 nM to reach half-maximal inhibition (IC50).
Still for that read-out and setting: then `O=C1NC(=O)C2(CCN(c3ccc(Oc4ccc(C(F)(F)F)cc4)cc3)CC2)N1` [Compound 19, 8-(4-(4-(trifluoromethyl)phenoxy)phenyl)-1,3,8-triazaspiro[4.5]decane-2,4-dione], with over 20000 nM; and `O=C1NC(=O)C2(CCN(c3ncccc3Oc3ccc(F)cc3)CC2)N1` [Compound 20, 8-(3-(4-Fluorophenoxy)pyridin-2-yl)-1,3,8-triazaspiro[4.5]decane-2,4-dione], with over 20000 nM; and `O=C1NC(=O)C2(CCN(c3cc(-c4cccc(OC(F)(F)F)c4)ccn3)CC2)N1` [Compound 21, 8-(4-(3-(Trifluoromethoxy)phenyl)pyridin-2-yl)-1,3,8-triazaspiro[4.5]decane-2,4-dione], with 1980 ± 309 nM.

A further assay has as its target T1, human Nav1.7. Nature of the assay: FLIPR sodium dye assay (CoroNa Green AM Na+ dye, primary fluorescence assay). The assay is classed as cell-based. Conditions: recombinant human Nav1.7 in HEK293.
Consider `NC(=O)c1cc(N[C@H]2CCNC2=O)nc(N2CCC3(CC2)OCc2ccccc23)n1` [Compound 8, (S)-6-((2-oxopyrrolidin-3-yl)amino)-2-(3H-spiro[isobenzofuran-1,4′-piperidin]-1′-yl)pyrimidine-4-carboxamide], for which the IC50 was found to be 3.92 ± 0.466 µM.
Same read-out and setting: then `NC(=O)c1cc(N[C@H]2CCNC2=O)nc(N2CCC3(C=Cc4ccccc43)CC2)n1` [Compound 9, (S)-6-((2-oxopyrrolidin-3-yl)amino)-2-(spiro[indene-1,4′-piperidin]-1′-yl)pyrimidine-4-carboxamide], with 1.3 ± 0.124 µM.
Still for that read-out and setting: the result for `NC(=O)c1cc(N[C@H]2CCNC2=O)nc(N2CCC3(CC2)OC(=O)c2ccccc23)n1` [Compound 10, (S)-2-(3-oxo-3H-spiro [isobenzofuran-1,4′-piperidin]-1′-yl)-6-((2-oxopyrrolidin-3-yl)amino)pyrimidine-4-carboxamide] reads 3.86 ± 0.39 µM.
Still for that read-out and setting: then `NC(=O)c1cc(N[C@H]2CCNC2=O)nc(N2CCC3(CC2)C(=O)NCN3c2ccccc2)n1` [Compound 11, (S)-2-(4-oxo-1-phenyl-1,3,8-triazaspiro[4.5]decan-8-yl)-6-((2-oxopyrrolidin-3-yl)amino)pyrimidine-4-carboxamide], with over 20 µM.

The values are drawn from patent US9884865B2, “Azaspiro[4.5] decane derivatives and use thereof” (Purdue Pharma L.P., priority 2013, dated 2018).
